Legend:
[1] = molecular target: GTPase KRas (Homo sapiens, UniProt P01116, G12C); assay: Inhibition of GDP bound biotinylated human C-terminal Avi/His6-tagged KRAS G12C mutant (1 to 166 residues) expressed in Escherichia coli BL21 (DE3) assessed as reduction in SOS1-mediated GDP/GTP nucleotide exchange by preventing recognition between KRAS G12C mutant and Ras binding domain of N-terminal Avi/GST-tagged Raf-1 (51 to 149 residues) preincubated for 4 hrs followed by SOS1 and GTPgammaS addition by FRET assay
[2] = Intrinsic clearance in rat hepatocytes assessed per 10^-6 cells; type: ADME, cell-based, Hepatocyte
[3] = Intrinsic clearance in human liver microsomes; type: ADME, Microsome; settings: for microsomal CLint: liver microsomes, read-out: CLH
[4] = Distribution coefficient, log D of compound at pH 7.4; type: physicochemical; settings: octanol/water
[5] = Volume of distribution at steady state in Han Wistar rat at 2 umol/kg, po or 1 umol/kg, iv; settings: in vivo
[6] = in vivo; settings: Han Wistar, rat, po, 2 umol/kg
[7] = Efflux ratio of apparent permeability in human Caco2 cells at 10 uM at pH 7.4; type: ADME, cell-based; settings: Caco-2, pH 7.4
[8] = Clearance in Han Wistar rat at 2 umol/kg, po or 1 umol/kg, iv; settings: in vivo
[9] = GSH reactivity in PBS buffer assessed as half life at pH 7.4 and 37 degree C in presence of glutathione; type: physicochemical; settings: PBS buffer with glutathione

Row | Vd [5] [L/kg] | bioavailability [6] [%] | efflux ratio at 10 µM [7] | clearance [8] [mL/min/kg] | half-life [9] [h] | Compound | IC50 [1] [nM] | hepatocyte intrinsic clearance [2] [µL/min] | microsomal CLint [3] [µL/min/mg] | logD ([4]; read-out: logD) | Intrinsic clearance in human liver microsomes [3] [µL/min/mg] | logD [4]
1 | – | – | – | – | – | C=CC(=O)N1CCN2c3c(cnc4c(F)c(-c5c(O)cccc5F)c(Cl)cc34)OC[C@H]2C1 (atropisomer aR) | 16 | 22 | 17 | 3.4 | – | –
2 | – | – | – | – | – | C=CC(=O)N1CCN(c2ncnc3cc(-c4c(C)ccc5[nH]ncc45)c(Cl)cc23)CC1 | 496 | 56 | 38 | 3.5 | – | –
3 | – | – | – | – | – | C=CC(=O)N1CCN2c3c(cnc4cc(-c5c(C)ccc6[nH]ncc56)c(Cl)cc34)OC[C@H]2C1 (single isomer, unassigned; atropisomer 2) | 1380 | 65 | – | – | 46 | > 4.2
4 | – | – | – | – | – | C=CC(=O)N1CCN2c3c(cnc4cc(-c5c(C)ccc6[nH]ncc56)c(Cl)cc34)OCC[C@H]2C1 | 627 | 102 | > 300 | – | – | –
5 | – | – | – | – | – | C=CC(=O)N1CCN2c3c(cnc4cc(-c5c(C)ccc6[nH]ncc56)c(Cl)cc34)OC[C@H]2C1 (single isomer, unassigned; atropisomer 1) | – | 174 | – | 4.2 | 165 | –
6 | 0.8 | 56 | 1.5 | 6 | 15.5 | C=CC(=O)N1CCN2c3c(cnc4c(F)c(-c5c(O)cccc5F)c(Cl)cc34)N(C)C(=O)[C@H]2C1 | – | 10 | 21 | 2.9 | – | –
7 | – | – | 1.5 | – | – | C=CC(=O)N1CCN2c3c(cnc4cc(-c5c(O)cccc5F)c(Cl)cc34)N(C)C[C@H]2C1 | – | 99 | 26 | 4.1 | – | –
8 | – | – | – | – | – | C=CC(=O)N1CCN2c3c(cnc4cc(-c5c(C)ccc6[nH]ncc56)c(Cl)cc34)OC[C@@H]2C1 (single isomer, unassigned; atropisomer 2) | 610 | 75 | 103 | 4.3 | – | –

Row | Compound | Vd [5] [L/kg] | bioavailability [6] [%] | efflux ratio at 10 µM [7] | clearance [8] [mL/min/kg] | half-life [9] [h] | IC50 [1] [nM] | hepatocyte intrinsic clearance [2] [µL/min] | microsomal CLint [3] [µL/min/mg] | logD ([4]; read-out: logD) | Intrinsic clearance in human liver microsomes [3] [µL/min/mg] | logD [4]
9 | C=CC(=O)N1CCN2c3c(cnc4cc(-c5c(O)cccc5F)c(Cl)cc34)N(C)C(=O)[C@H]2C1 | – | – | 0.9 | – | – | 150 | 7 | 24 | 3 | – | –

Reference: ChEMBL document CHEMBL4402559, “Structure-Based Design and Pharmacokinetic Optimization of Covalent Allosteric Inhibitors of the Mutant GTPase KRASG12C” (J Med Chem, 2020)
